Results on 1 compound are retold here after ChEMBL document CHEMBL1154581, “Polyhydroxylated sterols from the octocoral Dendronephthya gigantea” (J Nat Prod, 2000).

In brackets after ≈: the same amount, converted by molar mass.

Usually IC50 stands for the midpoint of a concentration-inhibition curve. A high value points to a need for much substance.

The assay concerns L1210. Description: Cytotoxicity against mouse L1210 cells. The class given is functional, cell-based.

Take `CC(=O)OC[C@]12CC[C@H]3[C@@H](C[C@@H](O)[C@@]4(O)C[C@@H](O)CC[C@]34C)[C@@H]1[C@H](O)C[C@@H]2[C@H](C)CCCC(C)C` [DENDRONESTEROL B]: the IC50 was determined as 5.2 µg/mL (≈ 10.5 µM).
